Test results as given in patent US10294248B2, “Beta-lactamase inhibitors” (VenatoRx Pharmaceuticals, Inc., priority 2013, dated 2019).

How the values were obtained:
[1] = test system: K. pneumoniae 156319 expressing KPC-3; test: Broth microdilution MIC, K. pneumoniae 156319 KPC-3; type: cell-based; settings: for MIC of example compound in presence of fixed β-lactam: Fixed Mero, K. P. 156319 KPC-3: fixed 4 μg/mL meropenem, CAMHB, 16-20 hours at 37° C.
Source text: (§1) To determine the ability of test compounds to potentiate the inhibition of the growth of bacterial strains that produce beta-lactamase enzymes, classic cell based broth microdilution MIC assays were employed. Six bacteria strains producing beta-lactamase enzymes were used: E. coli expressing the Class A Extended Spectrum Beta-Lactamase (ESBL) CTX-M-15, E. cloacae expressing the Class C P99, K. pneumoniae expressing the Class A carbapenemase KPC-3, P. aeruginosa expressing the Class B carbapenemase VIM-2, K. pneumoniae expressing the class A carbapenemase KPC-2 and the class B carbapenemase VIM-4, and S. aureus producing the Class A penicillinase PC-1. The assay was conducted in Cation Adjusted Mueller Hinton Broth (CAMHB, BD #212322, BD Diagnostic Systems, Sparks, Md.). Bacteria strains were grown for 3-5 hours in CAMBH broth. Test compounds (Examples 1-30) were added to a microtiter plate in 2-fold serial dilutions in CAMHB in a final concentration range of 32 μg/mL to 0.25 μg/ml. An overlay of CAMHB containing a Beta-lactam was added to the compounds at a final static concentration of 4 μg/ml. […] In addition to the titration of test compounds the MICs of a panel of control beta-lactams is also tested to ensure the strains are behaving consistently from test to test. Once the test compound and antibiotics are added the plates can be inoculated according to CLSI broth microdilution method. After inoculation the plates are incubated for 16-20 hours at 37° C. then the Minimal Inhibitory Concentration (MIC) of the test compound is determined visually.
(§2) Using the methodology described above, examples of the current invention were evaluated for their ability to inhibit the growth of β-lactamase-producing bacteria in the presence of a β-lactam antibiotic.
(§3) Using the methodology described above in EXAMPLE III, exemplary compounds for Formula I or Formula Ia were evaluated for their ability to inhibit the growth of β-lactamase producing bacteria in the presence of a β-lactam antibiotic.

[2] = test system: K. pneumoniae A-1797 expressing KPC-2 and VIM-4; test: Broth microdilution MIC, K. pneumoniae A-1797 KPC-2/VIM-4; type: cell-based; settings: for MIC of example compound in presence of fixed β-lactam: Fixed Mero, K. P. A-1797 KPC-2 VIM-4: fixed 4 μg/mL meropenem, CAMHB, 16-20 hours at 37° C.
Source text: as §1, §2, §3

[3] = test system: P. aeruginosa Ps296 expressing VIM-2; test: Broth microdilution MIC, P. aeruginosa Ps296 VIM-2; type: cell-based; settings: for MIC of example compound in presence of fixed β-lactam: Fixed Mero, P. aerug. Ps296 VIM-2: fixed 4 μg/mL meropenem, CAMHB, 16-20 hours at 37° C.
Source text: as §1, §2, §3

[4] = test system: E. coli ESBL4 expressing CTX-M-15; test: Broth microdilution MIC, E. coli ESBL4 CTX-M-15; type: cell-based; settings: for MIC of example compound in presence of fixed β-lactam: Fixed CAZ, E. coli ESBL4 CTX-M-15: fixed 4 μg/mL ceftazidime, CAMHB, 16-20 hours at 37° C.
Source text: as §1, §2, §3

[5] = biological target: T1, VIM-2 metallo-β-lactamase (Class B) (Pseudomonas aeruginosa, UniProt Q9K2N0); test: β-Lactamase inhibition, VIM-2; type: biochemical; settings: nitrocefin 100 μM, 486 nm; 15 min preincubation at 37° C., PBS pH 7.4
T1 construct: made in house; host or cells: E. coli BL21(DE3)
Description: For Vim-2 metallo β-lactamase, the procedure was identical with the following exceptions, first the protein was not pH adjusted to pH 5 with 50 mM sodium acetate, second, the chromatography step was changed to a 5 ml Q sepharose anion exchange column pre-equilibrated with 50 mM Hepes pH 7.5, and elution of the protein was achieved by a linear gradient of NaCl (0-600 mM). Finally, the VIM-2 purification required a second run (3rd step) on the Q sepharose anion exchange column to achieve acceptable purity (>90%).
(§4) An equal volume of diluted enzyme stock was added, and the plates were incubated at 37° C. for 15 min. Nitrocefin was used as substrate for p99 AmpC, VIM-2 and OXA-1 and dispensed into each well at a final concentration of 100 μM. Absorbance at 486 nm was immediately monitored for 10 min using a Biotek Powerwave XS2 microplate spectrophotometer using the GEN5 software package (Biotek Instruments, Winooski Vt.). In an analogous fashion, imipenem was used as substrate for Kpc-2 and Cefotaxime was used for SHV-5, while changes in absorbance upon hydrolysis of the β-lactam ring were monitored at 300 nm and 260 nm respectively in UV-transparent 96-well microtiter assay plates. Maximum rates of hydrolysis were compared to those in control wells (without inhibitors), and percentages of enzyme inhibition were calculated for each concentration of inhibitor. The concentration of inhibitor needed to reduce the initial rate of hydrolysis of substrate by 50% (IC50) was calculated as the residual activity of β-lactamase at 486 nm using GraFit version 7 kinetics software package (Erithacus Software, Surrey, UK).
(§5) Using the methodology described above, examples of the current invention were evaluated for their ability to inhibit β-lactamase enzymes from all four Ambler classifications (A through D). […] NT=Not tested.

[6] = biological target: T2, KPC-2 β-lactamase (Class A carbapenemase) (Klebsiella pneumoniae, UniProt Q9F663); test: β-Lactamase inhibition, KPC-2; type: biochemical; settings: imipenem substrate, 300 nm; 15 min preincubation at 37° C., PBS pH 7.4
T2 construct: made in house; host or cells: E. coli BL21(DE3)
T2 sequence (Q9F663 25-293, looked up): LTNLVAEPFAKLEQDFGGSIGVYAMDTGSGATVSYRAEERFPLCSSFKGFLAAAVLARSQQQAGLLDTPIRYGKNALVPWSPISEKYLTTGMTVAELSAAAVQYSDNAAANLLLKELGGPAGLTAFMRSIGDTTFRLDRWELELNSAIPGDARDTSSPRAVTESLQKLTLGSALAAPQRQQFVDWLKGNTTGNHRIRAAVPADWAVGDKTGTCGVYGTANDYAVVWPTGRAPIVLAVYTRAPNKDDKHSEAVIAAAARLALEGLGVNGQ
Description: (§6) For SHV-5, Kpc-2, p99AmpC and OXA-1 β-lactamases, E. coli BL21(DE3) bacterial cells carrying expression plasmids (expressed as native untagged proteins) for the individual β-lactamases were grown in 1 L of Superbroth (Teknova Inc. Hollister, Calif.) supplemented with 100 μg/ml kanamycin selection and 1×5052 (0.5% glycerol, 0.05% glucose and 0.2% α-lactose) at 35° C. for 18-20 hours. Cells were harvested by centrifugation (4,000×g, 4° C., 20 min), resuspended in 50 ml of 10 mM HEPES pH 7.5 ( 1/20 of the initial volume). The cells were lysed by sonication (5 pulses of 45 seconds) at 45 W on ice. The lysates were clarified by centrifugation at 10,000×g for 40 minutes at 4° C. Samples were diluted 5-fold in 50 mM sodium acetate pH 5.0, stored overnight at 4° C., after which they were centrifuged at 10,000×g for 30 minutes to clarify, and filtered through 0.45 μm filters. The samples were loaded onto a 5 ml Capto S sepharose cation exchange column (GE Healthcare) pre-equilibrated with 50 mM sodium acetate pH 5.0. The column was washed with 5 column volumes of 50 mM sodium acetate pH 5.0 to wash out unbound protein and a linear gradient of NaCl (0 to 500 mM) was used to elute the protein (over 16 CV) from the column. Fractions were assayed for β-lactamase activity using Centa (Calbiochem, Gibbstown, N.J.) or Nitrocefin (EMD Millipore chemicals, Darmstadt, Germany) as a reporter β-lactamase substrate for activity in the isolated fractions. Active fractions were pooled, concentrated and further purified by gel filtration chromatography on a Superdex 75 prep grade gel filtration column (GE Healthcare, Piscataway, N.J.) pre-equilibrated in 50 mM Hepes pH 7.5, 150 mM NaCl. Active fractions were pooled concentrated, quantitated by BCA protein determination (Thermo Scientific, Rockford, Ill.), dialyzed into PBS and frozen at −80° C. in 20% glycerol until use.
as §4, §5

[7] = biological target: T3, SHV-5 β-lactamase (Class A ESBL) (Klebsiella pneumoniae, UniProt P0A3M1); test: β-Lactamase inhibition, SHV-5; type: biochemical
T3 construct: made in house; host or cells: E. coli BL21(DE3)
T3 sequence (P0A3M1 22-286): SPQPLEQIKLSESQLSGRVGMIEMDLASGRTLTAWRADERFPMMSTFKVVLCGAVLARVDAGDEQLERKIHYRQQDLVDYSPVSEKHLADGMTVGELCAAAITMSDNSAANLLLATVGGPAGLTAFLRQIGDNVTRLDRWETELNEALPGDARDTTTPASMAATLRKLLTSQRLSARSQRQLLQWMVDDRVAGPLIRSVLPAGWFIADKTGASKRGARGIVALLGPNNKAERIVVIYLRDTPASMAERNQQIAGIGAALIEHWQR
Description: as §6, §4, §5

[8] = biological target: T4, p99 AmpC β-lactamase (Class C) (Enterobacter cloacae, UniProt P05364); test: β-Lactamase inhibition, p99 AmpC; type: biochemical
T4 construct: made in house; host or cells: E. coli BL21(DE3)
T4 sequence (P05364 21-381): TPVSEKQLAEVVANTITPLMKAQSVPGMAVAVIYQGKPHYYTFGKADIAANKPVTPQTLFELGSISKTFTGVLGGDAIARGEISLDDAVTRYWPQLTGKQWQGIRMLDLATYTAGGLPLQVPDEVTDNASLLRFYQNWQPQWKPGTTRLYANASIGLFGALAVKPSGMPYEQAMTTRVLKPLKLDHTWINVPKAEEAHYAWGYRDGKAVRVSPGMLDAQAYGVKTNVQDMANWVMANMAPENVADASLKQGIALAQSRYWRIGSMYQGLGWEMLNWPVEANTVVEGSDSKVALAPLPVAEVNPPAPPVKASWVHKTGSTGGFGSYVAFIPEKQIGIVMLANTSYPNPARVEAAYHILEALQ
Description: as §6, §4, §5

[9] = test system: E. cloacae 144200 expressing Class C P99 AmpC; test: Broth microdilution MIC, E. cloacae 144200 p99 AmpC; type: cell-based; settings: for MIC of example compound in presence of fixed β-lactam: Fixed CAZ, E. cl. 144200 p99 AmpC: fixed 4 μg/mL ceftazidime, CAMHB, 16-20 hours at 37° C.
Source text: as §1, §2, §3

[10] = test system: S. aureus MSSA-7 producing penicillinase PC-1; test: Broth microdilution MIC, S. aureus MSSA-7 PC-1; type: cell-based; settings: fixed 4 μg/mL piperacillin; CAMHB, 16-20 hours at 37° C.
Source text: as §1, §2, §3

SMILES | MIC ([1]; Klebsiella pneumoniae, read-out: MIC alone, K. pneumoniae expressing KPC-3) [µg/mL] | MIC ([2]; Klebsiella pneumoniae, read-out: MIC alone, K. pneumoniae expressing KPC-2 and VIM-4) [µg/mL] | MIC ([3]; Pseudomonas aeruginosa, read-out: MIC alone, P. aeruginosa expressing VIM-2) [µg/mL] | MIC of example compound in presence of fixed β-lactam: Fixed CAZ, E. coli ESBL4 CTX-M-15 [4] | IC50 [5] [nM] | IC50 [6] [nM] | IC50 [7] [nM] | MIC of example compound in presence of fixed β-lactam: Fixed Mero, K. P. 156319 KPC-3 [1] | MIC of example compound in presence of fixed β-lactam: Fixed Mero, K. P. A-1797 KPC-2 VIM-4 [2] | IC50 [8] [nM] | MIC of example compound in presence of fixed β-lactam: Fixed CAZ, E. cl. 144200 p99 AmpC [9] | MIC of example compound in presence of fixed β-lactam: Fixed Mero, P. aerug. Ps296 VIM-2 [3] | MIC of example compound in presence of fixed β-lactam: Fixed Pip, S. aureus MSSA-7 PC-1 [10] | MIC ([4]; Escherichia coli, read-out: MIC alone, E. coli expressing CTX-M-15) [µg/mL] | MIC ([9]; Enterobacter cloacae, read-out: MIC alone, E. cloacae expressing Class C P99) [µg/mL]
C[C@@H](O)[C@H]1C(=O)N2C(C(=O)O)=C(S[C@@H]3CN[C@H](C(=O)N(C)C)C3)[C@H](C)[C@H]12 [Meropenem, reference compound] | > 128 | 64 | 16 |  |  |  |  |  |  |  |  |  |  |  | 
N=C(N)NCCN1CCN(CC(=O)N[C@H]2Cc3cccc(C(=O)O)c3OB2O)C(=O)C1 [Example 38, 3-{2-[4-(2-Guanidino-ethyl)-2-oxo-piperazin-1-yl]-acetylamino}-2-hydroxy-3,4-dihydro-2H-benzo[e][1,2]oxaborinine-8-carboxylic acid] |  |  |  | C (the MIC in the presence of <4 μg/mL of a β-lactamase inhibitor) | 1000 to 10000 | 1000 to 10000 | 100 to 1000 | C (the MIC in the presence of <4 μg/mL of a β-lactamase inhibitor) | A (an MIC of the fixed β-lactam antibiotic in the presence of >32 μg/mL of a β-lactamase inhibitor) | < 100 | C (the MIC in the presence of <4 μg/mL of a β-lactamase inhibitor) | B (the MIC in the presence of between 8 and 32 μg/mL of a β-lactamase inhibitor) |  |  | 
N=C(N)N1CCC(CC(=O)N[C@H]2Cc3cccc(C(=O)O)c3OB2O)CC1 [Example 33, 3-[2-(1-Carbamimidoyl-piperidin-4-yl)-acetylamino]-2-hydroxy-3,4-dihydro-2H-benzo[e][1,2]oxaborinine-8-carboxylic acid] |  |  |  | C (the MIC in the presence of <4 μg/mL of a β-lactamase inhibitor) | 1000 to 10000 | 100 to 1000 | < 100 | B (the MIC in the presence of between 8 and 32 μg/mL of a β-lactamase inhibitor) | B (the MIC in the presence of between 8 and 32 μg/mL of a β-lactamase inhibitor) | < 100 | C (the MIC in the presence of <4 μg/mL of a β-lactamase inhibitor) | A (an MIC of the fixed β-lactam antibiotic in the presence of >32 μg/mL of a β-lactamase inhibitor) | C (the MIC in the presence of <4 μg/mL of a β-lactamase inhibitor) |  | 
CC(C)(O/N=C(\C(=O)N[C@@H]1C(=O)N2C(C(=O)[O-])=C(C[n+]3ccccc3)CS[C@H]12)c1csc(N)n1)C(=O)O [Ceftazidime, reference compound] |  |  |  |  |  |  |  |  |  |  |  |  |  | > 128 | 128
